Assay [1] relates to Thrips. The assay is described as follows: Thrips damage rating on cotton plants (Example 1). It is filed as in vivo. Conditions: cotton Delta and Pineland variety 555, rating 1 = no damage, 5 = plant dead; for Thrips Damage Rating 3 weeks: 3 weeks after planting; for Thrips Damage Rating 4 weeks: 4 weeks after planting. From the text:
This example illustrates the effect of a composition of the invention on cotton plant damage and plant height for cotton plants planted in soil known to have nematode (Rotylenchulus reniformis) pressure. The cotton plants utilized were commercially available Delta and Pineland variety 555.
The compositions described in Table 1 below were applied either as a seed treatment (Samples B, C, and E-G) or in furrow (Sample D) at the respective application rates set forth in Table 1.

Assay [2] deals with Thrips. Put plainly: Thrips damage rating on cotton plants (Example 2). It is filed as in vivo. Conditions: Fibermax cotton variety 960, rating 1 = no damage, 5 = plant dead; for Thrips Damage Rating 3 weeks: 3 weeks after planting; for Thrips Damage Rating 4 weeks: 4 weeks after planting. From the text: This example illustrates the effect of the compositions from Table 1 for cotton plants planted in soil known to have nematode (Rotylenchulus reniformis) pressure. FIGS. 4 and 5 illustrate the Thrips damage ratings at three and four weeks, respectively, after planting. FIG. 6 illustrates the plant height seven weeks after planting. The cotton plants utilized were commercially available Fibermax cotton variety 960.

Each structure is given as a SMILES string.

As to `CNC(=O)O/N=C/C(C)(C)SC` [Sample D, aldicarb], in assay [1], the “Thrips Damage Rating 3 weeks” value stood at 1.13 and the “Thrips Damage Rating 4 weeks” value was 1.5. In assay [2], the “Thrips Damage Rating 3 weeks” value stood at 2.5 and the “Thrips Damage Rating 4 weeks” value is listed as 2.1.

In the case of `O=[N+]([O-])NC1=NCCN1Cc1ccc(Cl)nc1` [E, imidacloprid], in assay [1], the “Thrips Damage Rating 3 weeks” value is on record as 2.25 and the “Thrips Damage Rating 4 weeks” value worked out at 2.4. Besides, in assay [2], the “Thrips Damage Rating 3 weeks” value amounted to 2.88 and the “Thrips Damage Rating 4 weeks” value is 3.

As to `O=[N+]([O-])NC1=NCCN1Cc1ccc(Cl)nc1` [B, imidacloprid], in assay [1], the “Thrips Damage Rating 3 weeks” value is on record as 2 and the “Thrips Damage Rating 4 weeks” value was determined as 2.3. Further, in assay [2], the “Thrips Damage Rating 3 weeks” value came out at 2.63 and the “Thrips Damage Rating 4 weeks” value was 2.5.
